Source: ChEMBL document CHEMBL1201862, “PubChem BioAssay data set” (2004)
Calls of active or inactive are those of the source.

Tests used:
[1] = target: Heat shock protein HSP 90-alpha (Homo sapiens, UniProt P07900); assay: Luminescence-based dose response biochemical high throughput screening assay for inhibitors of the Heat Shock Protein 90 (HSP90). [Related pubchem assays: 1831 (Summary AID.), 1846 (Confirmation screen.), 1789 (Primary screen.)]
[2] = system: BJ; assay: cytotoxicity toward BJ-TERT fibroblasts, dose response, cell-based, RAS-independent, luminescence (AID 1933); assay type: functional; details: Homo sapiens
[3] = target: T1, Type-1 angiotensin II receptor (Homo sapiens, UniProt P30556); assay: AT1 receptor antagonists, dose response, selectivity assay for APJ receptor antagonist project, cell-based, uHTS hits (AID 463214); assay type: functional;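 further: antagonist potency against angiotensin II stimulated AT1 response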
T1 sequence (P30556 whole entry): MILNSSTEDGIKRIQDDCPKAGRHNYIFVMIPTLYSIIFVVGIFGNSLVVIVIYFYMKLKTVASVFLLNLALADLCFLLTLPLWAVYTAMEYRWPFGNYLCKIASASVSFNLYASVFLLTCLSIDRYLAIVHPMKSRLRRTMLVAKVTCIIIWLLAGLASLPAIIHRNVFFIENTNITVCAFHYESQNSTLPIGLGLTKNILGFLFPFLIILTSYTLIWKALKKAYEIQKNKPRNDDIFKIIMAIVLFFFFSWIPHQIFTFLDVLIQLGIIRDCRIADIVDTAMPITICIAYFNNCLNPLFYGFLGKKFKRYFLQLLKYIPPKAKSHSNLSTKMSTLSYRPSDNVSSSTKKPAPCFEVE

[4] = cytotoxicity toward DRD oncogenic fibroblasts, dose response, cell-based, non-viral oncogenic, luminescence (AID 1934); assay type: functional; details: Homo sapiens
[5] = target: Beta-galactosidase (Escherichia coli, UniProt Q8VNN2); assay: PubChem AID 485352; assay type: functional
[6] = target: T2, Heat shock factor protein 1 (Mus musculus, UniProt P38532); assay: inhibition of MG132-induced HSE-luciferase signal, confirmation, cell-based, NIH3T3, luminescence, dose retest (AID 2382); assay type: functional;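 further: NIH3T3 fibroblasts with HSF1-driven luciferase reporter stressed by proteasome inhibitor MG132; luminescence from HSF1-driven luciferase expression after 8 hours of MG132 stress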
T2 sequence (P38532 whole entry): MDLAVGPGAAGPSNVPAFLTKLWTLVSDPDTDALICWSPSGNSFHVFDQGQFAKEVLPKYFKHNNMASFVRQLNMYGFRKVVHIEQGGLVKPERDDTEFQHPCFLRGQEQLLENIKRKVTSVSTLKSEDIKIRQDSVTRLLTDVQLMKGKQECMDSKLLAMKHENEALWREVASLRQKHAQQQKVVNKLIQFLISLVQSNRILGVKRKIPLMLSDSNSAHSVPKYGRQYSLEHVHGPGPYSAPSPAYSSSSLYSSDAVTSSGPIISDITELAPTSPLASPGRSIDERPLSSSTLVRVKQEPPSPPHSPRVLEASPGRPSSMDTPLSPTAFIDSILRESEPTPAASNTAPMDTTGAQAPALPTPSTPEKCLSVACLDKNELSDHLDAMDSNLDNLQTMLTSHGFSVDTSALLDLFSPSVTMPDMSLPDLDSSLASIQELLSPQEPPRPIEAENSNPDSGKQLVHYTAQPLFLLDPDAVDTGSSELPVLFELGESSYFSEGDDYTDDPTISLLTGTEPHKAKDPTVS

[7] = system: BJ; assay: cytotoxicity toward BJ-TERT-LT-ST fibroblasts, dose response, cell-based, RAS-independent, luminescence (AID 1935); assay type: functional; details: Homo sapiens;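 further: BJ fibroblasts immortalized with TERT plus LT and ST oncogenes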
[8] = system: BJ; assay: cells; assay type: functional, cell-based; details: Homo sapiens
[9] = system: BJ; assay: cytotoxicity toward Ras-transformed BJeLR fibroblasts, dose response, cell-based, alamar blue fluorescence, cherrypicked samples (AID 2631); assay type: functional; details: Homo sapiens;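 further: confirmatory dose-response assay in RAS-dependent BJ fibroblasts engineered with TERT, LT and ST, with cytotoxicity read by fluorescence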
[10] = target: T3, Leucine aminopeptidase (Plasmodium falciparum 3D7, UniProt Q8IL11); assay: P. falciparum M17LAP inhibitors, primary screen, biochemical, fluorogenic H-Leu-NHMec substrate, 1536-well (AID 1619); assay type: functional
T3 sequence (Q8IL11 whole entry): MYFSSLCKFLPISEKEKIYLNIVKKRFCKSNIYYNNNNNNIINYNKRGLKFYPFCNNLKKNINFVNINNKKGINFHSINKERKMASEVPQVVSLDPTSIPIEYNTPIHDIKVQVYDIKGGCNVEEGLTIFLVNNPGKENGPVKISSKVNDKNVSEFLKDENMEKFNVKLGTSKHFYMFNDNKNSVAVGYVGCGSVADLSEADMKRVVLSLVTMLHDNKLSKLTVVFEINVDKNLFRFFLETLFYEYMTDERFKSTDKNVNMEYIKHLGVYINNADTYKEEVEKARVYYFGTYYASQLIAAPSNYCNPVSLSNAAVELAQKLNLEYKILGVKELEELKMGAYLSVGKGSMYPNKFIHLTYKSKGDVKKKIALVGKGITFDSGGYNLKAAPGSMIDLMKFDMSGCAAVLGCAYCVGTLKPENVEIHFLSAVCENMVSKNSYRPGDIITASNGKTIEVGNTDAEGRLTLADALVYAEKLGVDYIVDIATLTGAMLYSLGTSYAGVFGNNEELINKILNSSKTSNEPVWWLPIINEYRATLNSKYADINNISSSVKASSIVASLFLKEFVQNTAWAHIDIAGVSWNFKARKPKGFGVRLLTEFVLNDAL

[11] = system: Escherichia coli; assay: microbe, parasite or virus in culture
[12] = target: T4, Mannose-6-phosphate isomerase (Homo sapiens, UniProt P34949); assay: PMI enzyme inhibitors, confirmation, biochemical, fluorescence intensity (AID 1535)
T4 sequence (P34949 whole entry): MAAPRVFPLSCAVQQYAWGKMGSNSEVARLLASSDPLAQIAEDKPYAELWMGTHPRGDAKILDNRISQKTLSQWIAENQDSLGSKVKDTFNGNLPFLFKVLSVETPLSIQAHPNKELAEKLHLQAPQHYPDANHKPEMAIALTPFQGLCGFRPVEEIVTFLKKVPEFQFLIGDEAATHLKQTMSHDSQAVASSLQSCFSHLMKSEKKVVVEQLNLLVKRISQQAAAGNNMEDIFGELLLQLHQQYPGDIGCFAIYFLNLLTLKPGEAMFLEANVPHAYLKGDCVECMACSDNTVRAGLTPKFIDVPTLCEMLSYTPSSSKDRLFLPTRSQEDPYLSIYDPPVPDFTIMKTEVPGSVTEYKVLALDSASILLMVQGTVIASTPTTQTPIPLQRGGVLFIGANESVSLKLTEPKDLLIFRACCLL

[13] = target: T5, High affinity choline transporter 1 (Homo sapiens, UniProt Q9GZV3); assay: CHT inhibitors, dose response, cell-based, 5-point CRC, membrane potential dye (AID 504840); assay type: functional
T5 sequence (Q9GZV3 whole entry): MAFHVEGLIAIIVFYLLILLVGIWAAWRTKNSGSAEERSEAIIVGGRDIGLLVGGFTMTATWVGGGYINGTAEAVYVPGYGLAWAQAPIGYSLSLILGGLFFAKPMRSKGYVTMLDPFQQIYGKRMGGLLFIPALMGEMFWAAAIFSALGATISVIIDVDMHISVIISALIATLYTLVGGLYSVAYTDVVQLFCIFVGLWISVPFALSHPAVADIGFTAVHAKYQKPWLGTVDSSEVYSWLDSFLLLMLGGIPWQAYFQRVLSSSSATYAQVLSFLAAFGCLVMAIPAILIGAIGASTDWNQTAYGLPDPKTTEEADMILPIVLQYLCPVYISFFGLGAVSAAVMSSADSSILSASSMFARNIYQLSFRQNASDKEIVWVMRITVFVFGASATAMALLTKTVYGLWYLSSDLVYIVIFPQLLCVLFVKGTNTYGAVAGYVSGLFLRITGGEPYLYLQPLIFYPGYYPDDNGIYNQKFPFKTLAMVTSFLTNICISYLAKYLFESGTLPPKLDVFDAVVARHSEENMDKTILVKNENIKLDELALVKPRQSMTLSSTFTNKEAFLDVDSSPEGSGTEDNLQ

[14] = target: T6, Phosphomannomutase 2 (Homo sapiens, UniProt O15305); assay: Counter screen SAR assay for PMM2 inhibitors via a fluorescence intensity assay. [Related pubchem assays (depositor defined):AID1545, AID1574]
T6 sequence (O15305 whole entry): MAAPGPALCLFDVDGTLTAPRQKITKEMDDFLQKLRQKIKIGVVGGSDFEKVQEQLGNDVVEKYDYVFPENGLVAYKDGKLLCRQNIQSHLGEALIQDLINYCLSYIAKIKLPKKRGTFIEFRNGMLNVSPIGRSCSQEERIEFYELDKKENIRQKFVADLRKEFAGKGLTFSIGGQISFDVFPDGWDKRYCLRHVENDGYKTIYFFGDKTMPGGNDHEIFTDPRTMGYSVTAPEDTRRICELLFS

[15] = target: T4, Mannose-6-phosphate isomerase; assay: inhibitors of human PMI, primary screen, biochemical, fluorescence intensity, coupled assay (AID 1209)
[16] = target: FAD-linked sulfhydryl oxidase ALR (Homo sapiens, UniProt P55789); assay: inhibitors of human ALR sulfhydryl oxidase, dose response, biochemical, H2O2 detection, luminescence, cherry-pick (AID 493248)
[17] = target: Cytochrome P450 2C9 (Homo sapiens, UniProt P11712)
[18] = target: Cytochrome P450 2D6 (Homo sapiens, UniProt P10635);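 further: CYP2D6 member of a cytochrome P450 panel assay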
[19] = system: HeLa; assay: HeLa cell cytotoxicity, dose response, cytotoxicity control for MITF activator project, CellTiter-Glo luminescence, cherry-pick samples (AID 540259); assay type: functional, cell-based; details: Homo sapiens
[20] = target: T7, Rac GTPase-activating protein 1 (Homo sapiens, UniProt Q9H0H5); assay: MgcRacGAP GTPase-activating activity inhibitors, confirmation, biochemical, ADP Hunter fluorescence, primary and confirmatory (AID 624330); assay type: functional
T7 sequence (Q9H0H5 whole entry): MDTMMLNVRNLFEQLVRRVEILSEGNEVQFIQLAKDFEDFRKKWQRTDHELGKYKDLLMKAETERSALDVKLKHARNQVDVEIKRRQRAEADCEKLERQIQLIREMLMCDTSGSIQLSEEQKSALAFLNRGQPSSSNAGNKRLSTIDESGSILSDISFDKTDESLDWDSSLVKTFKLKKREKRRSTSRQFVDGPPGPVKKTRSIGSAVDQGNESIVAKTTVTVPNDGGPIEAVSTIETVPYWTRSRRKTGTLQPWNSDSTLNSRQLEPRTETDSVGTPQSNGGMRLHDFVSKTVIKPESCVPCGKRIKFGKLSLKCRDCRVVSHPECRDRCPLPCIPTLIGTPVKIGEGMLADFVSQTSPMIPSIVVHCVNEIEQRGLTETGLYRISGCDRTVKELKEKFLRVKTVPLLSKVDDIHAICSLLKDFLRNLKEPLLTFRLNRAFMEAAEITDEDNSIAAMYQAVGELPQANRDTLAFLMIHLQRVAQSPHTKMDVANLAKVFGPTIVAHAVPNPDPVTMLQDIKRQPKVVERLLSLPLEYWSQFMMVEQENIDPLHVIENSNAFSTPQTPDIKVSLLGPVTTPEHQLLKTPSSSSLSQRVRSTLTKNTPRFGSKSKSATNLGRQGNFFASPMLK

[21] = target: Glucose-6-phosphate 1-dehydrogenase (Homo sapiens, UniProt P11413); assay: human G6PD enzyme inhibitors, dose response, selectivity assay for P. falciparum G6PD inhibitor project, biochemical, fluorescence (AID 504792); assay type: functional
Chain of Glucose-6-phosphate 1-dehydrogenase (P11413 whole entry): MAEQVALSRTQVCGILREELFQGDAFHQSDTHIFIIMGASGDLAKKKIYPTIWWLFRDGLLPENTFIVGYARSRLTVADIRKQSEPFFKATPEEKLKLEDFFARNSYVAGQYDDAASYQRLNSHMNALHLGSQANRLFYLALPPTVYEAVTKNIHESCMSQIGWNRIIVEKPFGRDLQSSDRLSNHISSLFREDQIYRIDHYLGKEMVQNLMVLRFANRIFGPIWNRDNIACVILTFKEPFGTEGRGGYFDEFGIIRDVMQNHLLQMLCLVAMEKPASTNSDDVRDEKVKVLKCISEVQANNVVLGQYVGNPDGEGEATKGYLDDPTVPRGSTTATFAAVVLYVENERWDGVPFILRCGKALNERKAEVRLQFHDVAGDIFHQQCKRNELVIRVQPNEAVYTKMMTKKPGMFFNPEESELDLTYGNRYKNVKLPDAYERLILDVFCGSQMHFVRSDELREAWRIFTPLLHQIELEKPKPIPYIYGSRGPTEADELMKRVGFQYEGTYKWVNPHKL

Chain of Cytochrome P450 2C9 (P11712 whole entry): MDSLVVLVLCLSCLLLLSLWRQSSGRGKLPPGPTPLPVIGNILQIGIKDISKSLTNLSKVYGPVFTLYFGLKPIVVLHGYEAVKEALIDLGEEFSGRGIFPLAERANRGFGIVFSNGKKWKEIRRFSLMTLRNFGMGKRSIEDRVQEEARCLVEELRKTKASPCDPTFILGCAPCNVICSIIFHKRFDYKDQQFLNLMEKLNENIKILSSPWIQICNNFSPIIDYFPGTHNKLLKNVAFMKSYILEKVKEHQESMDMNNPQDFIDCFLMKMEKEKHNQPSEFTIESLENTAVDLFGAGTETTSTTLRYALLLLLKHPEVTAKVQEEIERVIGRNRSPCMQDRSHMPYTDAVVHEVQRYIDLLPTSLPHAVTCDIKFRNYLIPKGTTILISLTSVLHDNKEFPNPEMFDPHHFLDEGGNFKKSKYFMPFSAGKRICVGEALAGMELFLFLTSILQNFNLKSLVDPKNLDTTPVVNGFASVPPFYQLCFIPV
Chain of Beta-galactosidase (Q8VNN2 whole entry): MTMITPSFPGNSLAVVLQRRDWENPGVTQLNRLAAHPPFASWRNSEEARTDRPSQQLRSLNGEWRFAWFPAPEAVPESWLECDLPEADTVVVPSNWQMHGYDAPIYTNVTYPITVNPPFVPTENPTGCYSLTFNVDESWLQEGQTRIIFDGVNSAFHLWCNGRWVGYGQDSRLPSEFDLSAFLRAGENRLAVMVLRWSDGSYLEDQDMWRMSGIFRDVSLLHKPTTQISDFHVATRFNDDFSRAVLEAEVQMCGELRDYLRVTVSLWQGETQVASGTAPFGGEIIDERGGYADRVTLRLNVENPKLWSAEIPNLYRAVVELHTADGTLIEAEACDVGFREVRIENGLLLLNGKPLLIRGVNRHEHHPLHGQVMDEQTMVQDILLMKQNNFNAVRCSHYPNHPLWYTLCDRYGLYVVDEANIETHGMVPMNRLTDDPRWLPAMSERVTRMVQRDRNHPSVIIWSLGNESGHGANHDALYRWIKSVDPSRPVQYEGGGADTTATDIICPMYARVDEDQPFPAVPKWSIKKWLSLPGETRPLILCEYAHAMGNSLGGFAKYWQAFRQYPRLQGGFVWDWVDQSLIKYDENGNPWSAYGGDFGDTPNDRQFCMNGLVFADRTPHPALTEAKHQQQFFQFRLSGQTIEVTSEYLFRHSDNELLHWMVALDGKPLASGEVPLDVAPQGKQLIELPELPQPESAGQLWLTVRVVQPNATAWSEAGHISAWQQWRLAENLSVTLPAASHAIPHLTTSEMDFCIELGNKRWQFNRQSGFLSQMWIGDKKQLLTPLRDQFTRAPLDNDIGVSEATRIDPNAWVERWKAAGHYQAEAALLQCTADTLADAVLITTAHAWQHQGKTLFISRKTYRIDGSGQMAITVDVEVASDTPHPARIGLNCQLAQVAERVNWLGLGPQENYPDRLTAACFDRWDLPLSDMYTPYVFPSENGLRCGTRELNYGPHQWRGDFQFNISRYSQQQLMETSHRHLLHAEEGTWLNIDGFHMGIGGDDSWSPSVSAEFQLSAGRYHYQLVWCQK
Chain of Cytochrome P450 2D6 (P10635 whole entry): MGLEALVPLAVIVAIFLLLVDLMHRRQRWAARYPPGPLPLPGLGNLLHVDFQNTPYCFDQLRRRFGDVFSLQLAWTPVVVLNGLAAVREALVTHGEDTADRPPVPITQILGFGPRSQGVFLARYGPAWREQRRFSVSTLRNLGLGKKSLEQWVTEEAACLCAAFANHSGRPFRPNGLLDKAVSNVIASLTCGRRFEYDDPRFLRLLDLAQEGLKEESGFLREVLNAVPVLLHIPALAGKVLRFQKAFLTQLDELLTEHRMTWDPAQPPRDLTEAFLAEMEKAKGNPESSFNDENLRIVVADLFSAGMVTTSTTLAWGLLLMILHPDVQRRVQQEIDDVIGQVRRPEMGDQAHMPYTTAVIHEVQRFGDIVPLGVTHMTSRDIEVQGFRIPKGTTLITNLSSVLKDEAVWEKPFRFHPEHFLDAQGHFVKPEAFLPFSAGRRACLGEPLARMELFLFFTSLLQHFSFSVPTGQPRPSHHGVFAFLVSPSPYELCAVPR
Chain of FAD-linked sulfhydryl oxidase ALR (P55789 whole entry): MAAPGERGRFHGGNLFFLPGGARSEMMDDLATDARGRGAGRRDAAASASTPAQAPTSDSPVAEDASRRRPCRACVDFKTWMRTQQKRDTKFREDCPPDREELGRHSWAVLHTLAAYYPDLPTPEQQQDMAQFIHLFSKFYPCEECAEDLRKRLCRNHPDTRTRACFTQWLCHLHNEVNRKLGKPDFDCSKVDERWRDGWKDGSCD

O=[N+]([O-])c1ccc(N=Nc2ncc[nH]2)cc1
IC50 [1]: 10.2 µM (not active)
EC50 [2]: 5.4 µM (inconclusive)
IC50 [3]: 23.5 µM (not active)
EC50 [4]: 11.5 µM (inconclusive)
EC50 [5]: > 40 µM (inactive)
EC50 [6]: 8.49 µM (active)
EC50 [7]: > 150 µM (inconclusive)
EC50 [8]: 2.43 µM (inconclusive)
EC50 [9]: 14.8 µM (active)

Cc1ccc(O)c(C(=O)c2coc(=N)c(C(=O)NC(C)C)c2)c1
IC50 [10]: 4.66 µM (active)
AC50 [11]: 23.8 µM (active)

CC(C)(C)c1ccc(C(=O)CSc2nnc[nH]2)cc1
IC50 [12]: > 50 µM (inactive)
IC50 [13]: 13.2 µM (active)
IC50 [14]: > 100 µM (inactive)
IC50 [15]: 6.08 µM (active)
IC50 [10]: 46 µM (active)

CCCC(=O)Nc1ccc(NC(=O)c2ccccn2)cn1
AC50 [11]: 58.3 µM (active)

O=C(NCCc1ccc(O)cc1)c1ccc(Cl)cc1
AC50 [16]: 6.24 µM (active)
AC50 [17]: inconclusive
AC50 [18]: 25.1 µM (inconclusive)
AC50 [19]: 99 µM (active)

O=C1CCN(c2ccccc2)N1 [PHENIDONE]
IC50 [20]: 46.5 µM (active)
IC50 [21]: 42.1 µM (inactive)
